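A five-concentration, 48-hour dose response in 96-well plates underlies each endpoint, interpolated linearly between surrounding concentrations. Abbreviation: GI50, concentration required for 50% inhibition of growth. The concentration for full growth arrest is given as TGI.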
How the values were obtained:
Experiment in all cases: growth of human tumour cells (NCI), 48 h
786-0 renal = test system: 786-0 renal
A549 NSCLC = test system: A549 NSCLC
ACHN renal = test system: ACHN renal
CAKI-1 renal = test system: CAKI-1 renal
CCRF-CEM leukemia = test system: CCRF-CEM leukemia
COLO 205 colon = test system: COLO 205 colon
DLD-1 colon = test system: DLD-1 colon
DMS 273 small cell lung = test system: DMS 273 small cell lung
EKVX NSCLC = test system: EKVX NSCLC
HCT-15 colon = test system: HCT-15 colon
HOP-62 NSCLC = test system: HOP-62 NSCLC
HT29 colon = test system: HT29 colon
IGROV1 ovarian = test system: IGROV1 ovarian
K-562 leukemia = test system: K-562 leukemia
KM12 colon = test system: KM12 colon
KM20L2 colon = test system: KM20L2 colon
LOX IMVI melanoma = test system: LOX IMVI melanoma
LXFL 529 NSCLC = test system: LXFL 529 NSCLC
M14 melanoma = test system: M14 melanoma
M19-MEL melanoma = test system: M19-MEL melanoma
MALME-3M melanoma = test system: MALME-3M melanoma
MOLT-4 leukemia = test system: MOLT-4 leukemia
NCI-H226 lung = test system: NCI-H226 lung
NCI-H23 lung = test system: NCI-H23 lung
NCI-H460 lung = test system: NCI-H460 lung
NCI-H522 lung = test system: NCI-H522 lung
OVCAR-3 ovarian = test system: OVCAR-3 ovarian
OVCAR-4 ovarian = test system: OVCAR-4 ovarian
OVCAR-5 ovarian = test system: OVCAR-5 ovarian
OVCAR-8 ovarian = test system: OVCAR-8 ovarian
RPMI-8226 leukemia = test system: RPMI-8226 leukemia
RXF 393 renal = test system: RXF 393 renal
SF-268 CNS = test system: SF-268 CNS
SF-295 CNS = test system: SF-295 CNS
SF-539 CNS = test system: SF-539 CNS
SK-MEL-2 melanoma = test system: SK-MEL-2 melanoma
SK-MEL-28 melanoma = test system: SK-MEL-28 melanoma
SK-MEL-5 melanoma = test system: SK-MEL-5 melanoma
SK-OV-3 ovarian = test system: SK-OV-3 ovarian
SN12C renal = test system: SN12C renal
SNB-19 CNS = test system: SNB-19 CNS
SNB-75 CNS = test system: SNB-75 CNS
SNB-78 CNS = test system: SNB-78 CNS
SR leukemia = test system: SR leukemia
SW-620 colon = test system: SW-620 colon
TK-10 renal = test system: TK-10 renal
U251 CNS = test system: U251 CNS
UACC-257 melanoma = test system: UACC-257 melanoma
UO-31 renal = test system: UO-31 renal
XF 498 CNS = test system: XF 498 CNS
A498 renal = test system: A498 renal
BT-549 breast = test system: BT-549 breast
DU-145 prostate = test system: DU-145 prostate
HCC-2998 colon = test system: HCC-2998 colon
HCT-116 colon = test system: HCT-116 colon
HL-60(TB) leukemia = test system: HL-60(TB) leukemia
HOP-92 NSCLC = test system: HOP-92 NSCLC
HS 578T breast = test system: HS 578T breast
MCF7 breast = test system: MCF7 breast
MDA-MB-231 breast = test system: MDA-MB-231 breast
MDA-MB-435 = test system: MDA-MB-435
NCI/ADR-RES ovarian = test system: NCI/ADR-RES ovarian
PC-3 prostate = test system: PC-3 prostate
T-47D breast = test system: T-47D breast
UACC-62 melanoma = test system: UACC-62 melanoma

With `Cc1c2ccncc2c(C)c2c1[nH]c1ccc(OCC(F)(F)F)cc12` the TGI (786-0 renal) was 2.9 µM, the TGI (A549 NSCLC) was 3.3 µM and the TGI (ACHN renal) was 2.88 µM. It also gave a TGI (CAKI-1 renal) of 3.66 µM, a TGI (CCRF-CEM leukemia) of 4.9 µM and a TGI (COLO 205 colon) of 3.18 µM. For the same molecule, the TGI (DLD-1 colon) was 3.32 µM, the TGI (DMS 273 small cell lung) was 2.17 µM and the TGI (EKVX NSCLC) was 3.09 µM. It also gave a TGI (HCT-15 colon) of 2.56 µM, a TGI (HOP-62 NSCLC) of 3.03 µM and a TGI (HT29 colon) of 3.11 µM. It also gave a TGI (IGROV1 ovarian) of 3.03 µM, a TGI (K-562 leukemia) of 3.91 µM and a TGI (KM12 colon) of 2.79 µM. The TGI (KM20L2 colon) was 2.78 µM, the TGI (LOX IMVI melanoma) was 3.09 µM and the TGI (LXFL 529 NSCLC) was 2.43 µM. It also gave a TGI (M14 melanoma) of 3.39 µM, a TGI (M19-MEL melanoma) of 3.49 µM and a TGI (MALME-3M melanoma) of 3.23 µM. It also gave a TGI (MOLT-4 leukemia) of 3.26 µM, a TGI (NCI-H226 lung) of 3.24 µM and a TGI (NCI-H23 lung) of 3.14 µM. For the same molecule, the TGI (NCI-H460 lung) was 2.46 µM, the TGI (NCI-H522 lung) was 3.22 µM and the TGI (OVCAR-3 ovarian) was 3.29 µM. It also gave a TGI (OVCAR-4 ovarian) of 3.48 µM, a TGI (OVCAR-5 ovarian) of 2.86 µM and a TGI (OVCAR-8 ovarian) of 2.59 µM. It also gave a TGI (RPMI-8226 leukemia) of 5.32 µM, a TGI (RXF 393 renal) of 3.46 µM and a TGI (SF-268 CNS) of 3.06 µM. The TGI (SF-295 CNS) was 3.01 µM, the TGI (SF-539 CNS) was 3.16 µM and the TGI (SK-MEL-2 melanoma) was 3.19 µM. The TGI (SK-MEL-28 melanoma) was 3.15 µM, the TGI (SK-MEL-5 melanoma) was 3.35 µM and the TGI (SK-OV-3 ovarian) was 3.31 µM. It also gave a TGI (SN12C renal) of 2.78 µM, a TGI (SNB-19 CNS) of 3.03 µM and a TGI (SNB-75 CNS) of 3.65 µM. For the same molecule, the TGI (SNB-78 CNS) was 5.47 µM, the TGI (SR leukemia) was 4.2 µM and the TGI (SW-620 colon) was 1.99 µM. It also gave a TGI (TK-10 renal) of 3.58 µM, a TGI (U251 CNS) of 2.98 µM and a TGI (UACC-257 melanoma) of 3.42 µM. For the same molecule, the TGI (UO-31 renal) was 3.16 µM and the TGI (XF 498 CNS) was 3.07 µM.

With `CC(=O)OC12COC1CC(O)C1(C)C(=O)C(O)C3=C(C)C(O)CC(O)(C(OC(=O)c4ccccc4)C21)C3(C)C` (configuration not stated) the TGI (786-0 renal) was > 100 µM, the TGI (A498 renal) was > 100 µM and the TGI (A549 NSCLC) was > 100 µM. For the same molecule, the TGI (ACHN renal) was > 100 µM, the TGI (BT-549 breast) was > 100 µM and the TGI (CAKI-1 renal) was > 100 µM. For the same molecule, the TGI (CCRF-CEM leukemia) was > 100 µM, the TGI (COLO 205 colon) was 5.29 µM and the TGI (DMS 273 small cell lung) was 17.6 µM. The TGI (DU-145 prostate) was > 100 µM, the TGI (EKVX NSCLC) was > 100 µM and the TGI (HCC-2998 colon) was 59.3 µM. The TGI (HCT-116 colon) was > 73.6 µM, the TGI (HCT-15 colon) was > 100 µM and the TGI (HL-60(TB) leukemia) was 24.3 µM. For the same molecule, the TGI (HOP-62 NSCLC) was > 100 µM, the TGI (HOP-92 NSCLC) was > 100 µM and the GI50 (HS 578T breast) was 1.36 µM. For the same molecule, the TGI (HS 578T breast) was 6.15 µM, the TGI (HT29 colon) was > 44.8 µM and the TGI (IGROV1 ovarian) was > 100 µM. The TGI (K-562 leukemia) was > 100 µM, the GI50 (KM12 colon) was 1.22 µM and the TGI (KM12 colon) was > 100 µM. The TGI (KM20L2 colon) was 5.42 µM, the TGI (LOX IMVI melanoma) was > 100 µM and the TGI (M14 melanoma) was > 100 µM. For the same molecule, the TGI (M19-MEL melanoma) was > 100 µM, the TGI (MALME-3M melanoma) was > 100 µM and the TGI (MCF7 breast) was > 100 µM. For the same molecule, the TGI (MDA-MB-231 breast) was > 100 µM, the TGI (MDA-MB-435) was 1.48 µM and the TGI (MOLT-4 leukemia) was > 100 µM. The TGI (NCI-H226 lung) was > 100 µM, the TGI (NCI-H23 lung) was > 100 µM and the TGI (NCI-H460 lung) was > 100 µM. The TGI (NCI-H522 lung) was 11.2 µM, the TGI (NCI/ADR-RES ovarian) was > 100 µM and the TGI (OVCAR-3 ovarian) was > 39.2 µM. For the same molecule, the TGI (OVCAR-4 ovarian) was > 100 µM, the TGI (OVCAR-5 ovarian) was > 42.2 µM and the TGI (OVCAR-8 ovarian) was > 100 µM. For the same molecule, the TGI (PC-3 prostate) was > 28.5 µM, the TGI (RPMI-8226 leukemia) was > 59.8 µM and the TGI (RXF 393 renal) was > 100 µM. The TGI (SF-268 CNS) was > 100 µM, the TGI (SF-295 CNS) was > 100 µM and the TGI (SF-539 CNS) was 5.51 µM. The GI50 (SK-MEL-2 melanoma) was 1.84 µM, the TGI (SK-MEL-2 melanoma) was 6.51 µM and the TGI (SK-MEL-28 melanoma) was > 100 µM. The TGI (SK-MEL-5 melanoma) was 29.5 µM, the TGI (SK-OV-3 ovarian) was > 100 µM and the TGI (SN12C renal) was > 100 µM. The TGI (SNB-19 CNS) was > 100 µM, the TGI (SNB-75 CNS) was > 29.9 µM and the TGI (SNB-78 CNS) was > 100 µM. For the same molecule, the TGI (SR leukemia) was > 100 µM, the GI50 (SW-620 colon) was 2.48 µM and the TGI (SW-620 colon) was > 100 µM. For the same molecule, the TGI (T-47D breast) was > 100 µM, the TGI (TK-10 renal) was > 100 µM and the TGI (U251 CNS) was > 74.3 µM. The TGI (UACC-257 melanoma) was > 100 µM, the TGI (UACC-62 melanoma) was > 100 µM and the TGI (UO-31 renal) was > 100 µM. The TGI (XF 498 CNS) was > 100 µM.

— PubChem BioAssay (NCI)
